# According to paper PMC11931445, “A Novel Compound QO‐83 Alleviates Acute and Chronic Epileptic Seizures in Rodents by Modulating KV7 Channel Activity” (CNS Neuroscience & Therapeutics, 2025):
# Tested on: pilocarpine-induced seizures
# Assay: Pilocarpine-induced status epilepticus model with EEG
# Format: in vivo, Sprague–Dawley (SD) rats
# Details: for effect on EEG power spectral density: pilocarpine-treated rats
# Source text: For animal experiments, we used adult male Sprague–Dawley (SD) rats weighing between 240 and 260 g. Isoflurane anesthesia was used for all operations. Rats were secured in a stereotaxic frame, and the anterior fontanelle was marked 3 mm posteriorly. Additionally, marks were made approximately 3 mm lateral to the midline on both sides to indicate the insertion points for the positive and negative electrodes. A ground electrode was placed subcutaneously in the occipital lobe to eliminate recording noise. Postoperatively, each animal was housed separately in a single cage and provided food and water ad libitum. After a 3‐day adaptation period, electroencephalograms (EEG) were recorded.
# The experimental procedure commenced with an intraperitoneal injection of lithium chloride (127 mg/kg). After 24 h, subcutaneous scopolamine methyl nitrate (1 mg/kg) was administered. […] Twenty minutes later, status epilepticus (SE) was induced by administering pilocarpine (100 mg/kg, i.p.). SE was terminated 2 h later by administering 10% chloral hydrate.
# The Pilo group, 2 mg/kg XE991 group, and 2 mg/kg XE991 + 1 mg/kg QO‐83 group received an intraperitoneal injection of lithium chloride (127 mg/kg) 24 h prior to testing. Following this, scopolamine methyl nitrate (1 mg/kg) was administered […], and after 10 min, each group was treated with 25% beta‐cyclodextrin, 2 mg/kg XE991, or 2 mg/kg XE991, respectively. After 15 min, 25% beta‐cyclodextrin, 25% beta‐cyclodextrin, or 1 mg/kg QO‐83 was administered. Finally, 25 min later, pilocarpine (100 mg/kg, i.p.) was administered to induce seizures.
# Seizure severity was assessed using a standardized scale ranging from 1 to 5, adapted from previous research criteria. Stage 1 encompasses mouth and facial movements, including wet dog shakes. Stage 2 involves head nodding. Stage 3 is characterized by unilateral forelimb clonus. […] Finally, stage 5 manifests as clonus of all limbs accompanied by falling.
compound,measurement,setting,value
"CCOC(=O)Nc1ccc(NCc2ccc(F)cc2)cc1N [RTG, retigabine]",effect on epileptic behavior,1 mg/kg i.p.,could not rescue the epileptic behavior
same,effect on EEG power spectral density,1 mg/kg i.p.,did not exhibit effects equivalent
same,effect on latency of seizures,10 mg/kg i.p.,significantly prolonged the latency of seizures
same,effect on seizure grade,10 mg/kg i.p.,reduced the seizure grade
same,effect on EEG power spectral density,10 mg/kg i.p.,significantly inhibited the increase in EEG power spectral density
